According to patent publication US9278527B2, “Ink jet recording ink, ink jet recording method, ink jet recording head, and ink jet recording apparatus” (CANON FINETECH INC., priority 2013, dated 2016):
Where two headings read alike, the source gives them in different places.

Experiments:
[1] = Hydrophilicity-hydrophobicity coefficient from water activity value of 20% aqueous solution (equation (A)); type: physicochemical
[2] = Solubility in water
[3] = 20% aqueous solution, water activity by chilled mirror dew point method (AquaLab CX-3TE) at 25° C., equation (A)

Row | Hydrophilicity-hydrophobicity coefficient [1, 3] | Solubility [2] | Compound | Hydrophilicity-hydrophobicity coefficient [1]
1 | 0.54 | > 20 g/100 g H2O | CC(CCO)CCO [3-Methyl-1,5-Pentanediol] | 
2 | 0.07 | > 20 g/100 g H2O | OCCOCCOCCO [Triethylene glycol] | 
3 | −0.43 | > 20 g/100 g H2O | Polyethylene glycol 600 | 
4 | 0.76 | > 20 g/100 g H2O | OCCCCCCO [1,6-Hexanediol] | 
5 | 0.28 | > 20 g/100 g H2O | OCCCCC(O)CO (stereo not drawn) [1,2,6-Hexanetriol] | 
6 | 0.22 | > 20 g/100 g H2O | CC(O)C(O)CO (stereo not drawn) [1,2,3-Butanetriol] | 
7 | 0.11 | > 20 g/100 g H2O | OCC(O)CO [Glycerin] | 
8 | 0.97 | > 20 g/100 g H2O | CCCCC(O)CO (stereo not drawn) [1,2-Hexanediol] | 
9 |  |  | Bishydroxyethyl sulfone | 0.21
10 | 0.30 | > 20 g/100 g H2O | O=C1NCCN1 [Ethylene urea] | 
11 | −0.09 | > 20 g/100 g H2O | Polyethylene glycol 200 | 
12 | 0.41 | > 20 g/100 g H2O | OCCCCCO [1,5-Pentanediol] | 
13 | 0.86 | > 20 g/100 g H2O | CC(O)CC(C)O (stereo not drawn) [2,4-Pentanediol] | 
14 | 0.90 | > 20 g/100 g H2O | CC(C)(O)CCO [3-Methyl-1,3-butanediol] | 
15 | 0.90 | > 20 g/100 g H2O | CCC(O)CO (stereo not drawn) [1,2-Butanediol] | 
16 | 0.93 | > 20 g/100 g H2O | CCCC(O)CO (stereo not drawn) [1,2-Pentanediol] | 
17 | 0.15 | > 20 g/100 g H2O | OCCC(O)CO (stereo not drawn) [1,2,4-Butanetriol] | 
18 | 0.73 | > 20 g/100 g H2O | OCCCCCCCO [1,7-Heptanediol] | 
19 | 0.21 | > 20 g/100 g H2O | OC[C@@H](O)[C@@H](O)[C@H](O)[C@@H](O)CO [Sorbitol] | 

Row | Compound | Hydrophilicity-hydrophobicity coefficient [1, 3] | Solubility [2] | Hydrophilicity-hydrophobicity coefficient [1]
20 | NC(N)=O [Urea] | 0.20 | > 20 g/100 g H2O | 
